In this test the test system is CD2F1 mice, L1210 leukemia ip, survival T/C. Put plainly: NCI In Vivo Anticancer Drug Screen. Data for tumor model L1210 Leukemia (intraperitoneal) in CD2F1 (CDF1) mice. The conditions noted are these: higher = longer survival. The method in brief:
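Vehicle-treated tumor-bearing mice served as controls (C) for compound-treated mice (T). Reported figure is T divided by C.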

Setting [1] is: endpoint: mean survival time, dose: 50.0 mg/kg/injection, schedule: Q01DX009 (ip), vehicle: saline with Tween-80.
[2] abbreviates: endpoint: mean survival time, dose: 100.0 mg/kg/injection, schedule: Q01DX009 (ip), vehicle: saline with Tween-80.
[3] abbreviates: endpoint: mean survival time, dose: 100.0 mg/kg/injection, schedule: Q01DX001 (ip), vehicle: saline.
Setting [4] is: endpoint: mean survival time, dose: 100.0 mg/kg/injection, schedule: Q01DX001 (ip), vehicle: saline with Tween-80.
The mark [5] stands for this setting: endpoint: mean survival time, dose: 200.0 mg/kg/injection, schedule: Q01DX001 (ip), vehicle: saline with Tween-80.
The mark [6] stands for this setting: endpoint: mean survival time, dose: 100.0 mg/kg/injection, schedule: Q04DX003 (ip), vehicle: saline with Tween-80.
Setting [7] is: endpoint: mean survival time, dose: 200.0 mg/kg/injection, schedule: Q04DX003 (ip), vehicle: saline with Tween-80.
Where [8] appears, read: endpoint: mean survival time, dose: 200.0 mg/kg/injection, schedule: Q01DX009 (ip), vehicle: saline with Tween-80.
[9] abbreviates: endpoint: mean survival time, dose: 400.0 mg/kg/injection, schedule: Q01DX009 (ip), vehicle: saline with Tween-80.
Setting [10] is: endpoint: mean survival time, dose: 400.0 mg/kg/injection, schedule: Q04DX003 (ip), vehicle: saline with Tween-80.

Each structure is given as a SMILES string. Toxic doses and inconclusive results are not listed.

`O=c1[nH]c(=O)n(C2OC(CO)C3OP(=O)(C45CC6CC(CC(C6)C4)C5)OC32)cc1Br` (configuration not stated): the T/C is, setting by setting: (endpoint: mean survival time, dose: 12.5 mg/kg/injection, schedule: Q01DX005 (ip), vehicle: other) 93 % of control; (endpoint: mean survival time, dose: 25.0 mg/kg/injection, schedule: Q01DX005 (ip), vehicle: other) 97 % of control; (endpoint: mean survival time, dose: 50.0 mg/kg/injection, schedule: Q01DX005 (ip), vehicle: other) 93 % of control; (endpoint: mean survival time, dose: 100.0 mg/kg/injection, schedule: Q01DX005 (ip), vehicle: other) 93 % of control; (endpoint: mean survival time, dose: 200.0 mg/kg/injection, schedule: Q01DX005 (ip), vehicle: other) 93 % of control.

Regarding `O=C1NCCN1c1ncc([N+](=O)[O-])s1`, the T/C reads like this: (endpoint: mean survival time, dose: 25.0 mg/kg/injection, schedule: Q01DX009 (ip), vehicle: saline with Tween-80) 101 % of control; under setting [1], 97 % of control; under setting [2], 97 % of control.

In the case of `C=CN(C)OC`, the T/C under setting [3] is 100 % of control.

Turning to `c1ccc2c(-c3cnc(-c4ccc(-c5ncc(-c6cccc7ccccc67)o5)cc4)o3)cccc2c1`, the T/C reads like this: (endpoint: mean survival time, dose: 75.0 mg/kg/injection, schedule: Q01DX001 (ip), vehicle: saline) 100 % of control; (endpoint: mean survival time, dose: 150.0 mg/kg/injection, schedule: Q01DX001 (ip), vehicle: saline) 102 % of control; (endpoint: mean survival time, dose: 300.0 mg/kg/injection, schedule: Q01DX001 (ip), vehicle: saline) 97 % of control.

Turning to `O=C/C=C/C=O`, the T/C by setting is: (endpoint: mean survival time, dose: 3.13 mg/kg/injection, schedule: Q01DX001 (ip), vehicle: suspension in saline) 98 % of control; (endpoint: mean survival time, dose: 6.25 mg/kg/injection, schedule: Q01DX001 (ip), vehicle: saline with Tween-80) 106 % of control; (endpoint: mean survival time, dose: 6.25 mg/kg/injection, schedule: Q01DX001 (ip), vehicle: suspension in saline) 104 % of control; (endpoint: mean survival time, dose: 12.5 mg/kg/injection, schedule: Q01DX001 (ip), vehicle: saline with Tween-80) 122 % of control; (endpoint: mean survival time, dose: 12.5 mg/kg/injection, schedule: Q01DX001 (ip), vehicle: suspension in saline) 101 % of control; (endpoint: mean survival time, dose: 25.0 mg/kg/injection, schedule: Q01DX001 (ip), vehicle: suspension in saline) 101 % of control.

With `O/N=C1\CN2CCC1CC2`, the T/C under setting [4] was 91 % of control.

On to `C1CCC2NN=NC2C1` (configuration not stated), for which the T/C reads like this: under setting [4], 104 % of control; under setting [5], 98 % of control.

With `O=C(Nc1ccc2c(c1)OCO2)O/N=C1\C(=O)Nc2ccccc21`, the T/C reads like this: under setting [6], 100 % of control; under setting [7], 86 % of control.

Turning to `COC(=O)N1c2ccc(OC)cc2C=CC1C#N` (configuration not stated), the T/C runs as follows: under setting [2], 94 % of control; under setting [6], 96 % of control; under setting [8], 95 % of control; under setting [7], 102 % of control; under setting [9], 103 % of control; under setting [10], 94 % of control.

On to `CCOC(=O)CN(c1c(C)cc([N+](=O)[O-])c2ccccc12)S(=O)(=O)c1ccccc1`, for which the T/C is 97 % of control under setting [4]; 94 % of control under setting [5]; 96 % of control (endpoint: mean survival time, dose: 400.0 mg/kg/injection, schedule: Q01DX001 (ip), vehicle: saline with Tween-80).

Take `CCOC(=O)c1ccc(OC(=O)Nc2ccc(Cl)cc2)cc1`: the T/C runs as follows: under setting [2], 96 % of control; under setting [6], 94 % of control; under setting [8], 102 % of control; under setting [7], 94 % of control; under setting [9], 100 % of control.

Turning to `CC(C)(O)C(=O)N/N=C/c1ccc(Cl)cc1`, the T/C reads like this: under setting [2], 90 % of control; under setting [8], 90 % of control.

For `S=P(Cc1ccccc1)(c1ccccc1)c1ccccc1`, the T/C reads like this: under setting [1], 89 % of control; under setting [2], 90 % of control; under setting [6], 88 % of control; under setting [7], 86 % of control.

Take `CCC(=O)Oc1[nH]c(C)c(C(C)=O)c1C`: the T/C is, setting by setting: under setting [2], 100 % of control; under setting [6], 102 % of control; under setting [8], 97 % of control; under setting [7], 97 % of control; under setting [9], 100 % of control; under setting [10], 94 % of control.

With `ClCCOCC1CO1` (configuration not stated), the T/C by setting is: (endpoint: mean survival time, dose: 150.0 mg/kg/injection, schedule: Q04DX003 (ip), vehicle: saline) 101 % of control; (endpoint: mean survival time, dose: 225.0 mg/kg/injection, schedule: Q04DX003 (ip), vehicle: saline) 104 % of control; (endpoint: mean survival time, dose: 335.0 mg/kg/injection, schedule: Q04DX003 (ip), vehicle: saline) 96 % of control.

For `NC(=N\O)/C(N)=N/O.[Cl][Pd][Cl]`, the T/C by setting is: (endpoint: median survival time, dose: 3.12 mg/kg/injection, schedule: Q04DX003 (ip), vehicle: saline) 100 % of control; (endpoint: median survival time, dose: 6.25 mg/kg/injection, schedule: Q04DX003 (ip), vehicle: saline) 100 % of control; (endpoint: median survival time, dose: 12.5 mg/kg/injection, schedule: Q04DX003 (ip), vehicle: saline) 103 % of control; (endpoint: median survival time, dose: 25.0 mg/kg/injection, schedule: Q04DX003 (ip), vehicle: saline) 100 % of control; (endpoint: median survival time, dose: 50.0 mg/kg/injection, schedule: Q04DX003 (ip), vehicle: saline) 97 % of control; (endpoint: median survival time, dose: 100.0 mg/kg/injection, schedule: Q04DX003 (ip), vehicle: saline) 98 % of control. In addition, the T/C (endpoint: median survival time, dose: 200.0 mg/kg/injection, schedule: Q04DX003 (ip), vehicle: saline) is 97 % of control.

As for `CC(=O)OC1C2C=CC1C1CC21` (configuration not stated), the T/C is 96 % of control under setting [3]; 100 % of control (endpoint: mean survival time, dose: 200.0 mg/kg/injection, schedule: Q01DX001 (ip), vehicle: saline); 98 % of control (endpoint: mean survival time, dose: 400.0 mg/kg/injection, schedule: Q01DX001 (ip), vehicle: saline).

Consider `C1=CC2c3ccc4ccccc4c3C(c3ccccc3)C2C=C1` (configuration not stated), for which the T/C under setting [6] is 108 % of control, the T/C under setting [7] was 96 % of control and the T/C under setting [10] is 102 % of control.

As for `CN=C(NC)c1ccc(NC(=O)/C=C\c2ccc(/C=C/C(=O)Nc3ccc(C(=NC)NC)cc3)cc2)cc1`, the T/C is, setting by setting: (endpoint: median survival time, dose: 1.5 mg/kg/injection, schedule: Q01DX009 (ip), vehicle: Klucel (hydroxypropylcellulose) (HPC)) 112 % of control; (endpoint: median survival time, dose: 3.0 mg/kg/injection, schedule: Q01DX009 (ip), vehicle: Klucel (hydroxypropylcellulose) (HPC)) 124 % of control; (endpoint: median survival time, dose: 3.12 mg/kg/injection, schedule: Q01DX009 (ip), vehicle: Klucel (hydroxypropylcellulose) (HPC)) 151 % of control; (endpoint: median survival time, dose: 6.0 mg/kg/injection, schedule: Q01DX009 (ip), vehicle: Klucel (hydroxypropylcellulose) (HPC)) 181 % of control; (endpoint: median survival time, dose: 6.25 mg/kg/injection, schedule: Q01DX009 (ip), vehicle: Klucel (hydroxypropylcellulose) (HPC)) 186 % of control; (endpoint: median survival time, dose: 12.0 mg/kg/injection, schedule: Q01DX009 (ip), vehicle: Klucel (hydroxypropylcellulose) (HPC)) 124 % of control. Also, the T/C (endpoint: median survival time, dose: 12.5 mg/kg/injection, schedule: Q01DX009 (ip), vehicle: Klucel (hydroxypropylcellulose) (HPC)) was 124 % of control.

(Values after PubChem BioAssay AID256 (DTP/NCI, 2004).)
